The record followed here is patent US20080009506A1, “Imidazole Compound” (priority 2004, published 2008).

In this assay the test system is rhythmic bladder contractions induced by substance P. The assay is described as follows: Inhibitory effect on the rhythmic bladder contractions induced by substance P in anesthetized rats. As to conditions: 0.25 mg/kg, intravenous, urethane-anesthetized rats, substance P 0.33 μg/kg/min infusion. Type of assay: in vivo, Sprague-Dawley female rats. Here is the method:
For the experiments, Sprague-Dawley female rats (9 to 12 weeks old) weighing between 200 to 300 g were used. After urethane anesthetization (subcutaneously administered with a dose of 1.2 g/kg), cannulae were placed in both right and left femoral veins. One intravenous catheter was used for administration of compounds, and the other was for the substance P (0.33 μg/kg/min) infusion. We also cannulated into ureter to pass urine. Polyethylene catheters were inserted into carotid artery for continuous monitoring of arterial blood pressure and heart rate. For continuous infusion, transurethral bladder catheter was inserted into the bladder through the urethra and tied in place by a ligature around the urethral orifice. One end of the catheter was attached to a pressure transducer in order to measure intravesical pressure. The other end of the catheter was used for infusion of saline into the bladder. After stabilization of blood pressure and heart rate and after the bladder was emptied, cystometry was performed by filling the bladder slowly with about 0.6 ml of saline. After about 10 minutes, intravenous infusion of substance P (0.33 μg/kg/min) was started for stabilization of the micturition reflex. Compounds were administered after stable rhythmic bladder contraction was obtained over 15 minutes. […]

For `NC(=O)c1ccc(-n2cc(C(F)(F)F)nc2-c2ccccc2)cc1` [Example 1 (Compound 4)], the “100% inhibition time: time during which the frequency of the rhythmic contraction had been completely inhibited” value is listed as 10.08 min.
